According to article PMC9323733, “Efficacy of Vafidemstat in Experimental Autoimmune Encephalomyelitis Highlights the KDM1A/RCOR1/HDAC Epigenetic Axis in Multiple Sclerosis” (Pharmaceutics, 2022):
“Also recorded” adds a separate entry of the source.

Tests used:
[1] = tested on: patients and healthy volunteers; conditions: cited from earlier work
[2] = tested on: SJL/J mice infected with TMEV; assay: Theiler's murine encephalomyelitis virus (TMEV) model; type: in vivo, mouse
Method: Susceptible SJL/J mice (6 weeks old), previously anesthetized with isoflurane, were inoculated in the cerebral parenchyma with 2 × 10^6 plaque forming units (pfu) of the Daniel’s strain of TMEV, diluted in 30 μL of Dulbecco’s Modified Eagle Medium (DMEM) supplemented with 5% fetal bovine serum (FBS). The injection takes place in the right hemisphere of the cerebral cortex using a Hamilton syringe coupled to a pipette tip in such a way that it allows for an exposure of the needle of about 2–3 mm; thus, the virus is always injected at the same depth. Sham animals are subjected to the same protocol, but they only received 30 µL of DMEM supplemented with 5% fetal bovine serum. […] Control mice were treated with vehicle [2% v/v Tween-80 + 98% HPβCD (13% w/v)] following the same administration regime (Figure 4a). The animals were weighed every week from the onset of infection and clinical signs were evaluated using the criterion described by Moses Rodriguez (Mayo Clinic), source of the Daniel’s strain of TMEV to assess the severity of the disease by the general appearance: Score 1 = Shaggy and scruffy hair; 2 = scruffy appearance and hunched back; 3 = no spontaneous movement, reduced induced activity; and Gait: Score 1 = mild ataxia with inconsistent waddling gait; 2 = moderate ataxia with consistent waddling gait; 3 = severe ataxia with reduced righting response; 4 = spastic paresis of hind legs. The score of the animals and motor behavior were analyzed by trained observers blind to treatment and experimental groups.
The screening for locomotor activity was performed by analyzing spontaneous motor activity using an Activity Cage (Activity Monitor System Omnitech Electronics, Inc., Columbus, OH, USA) and by evaluating the mice performance in the Rotarod test. The activity cage consists of a four-compartment metacrylate cage, surrounded by sensors in such a way that it registers the movements of the mouse in both vertical and horizontal position and ambulation. The test consists of introducing the mice into two compartments of the cage placed diagonally so as not to interfere with the sensors of the other mouse. During two five-minute cycles (0–5 min, 5–10 min), horizontal activity (HACTV) or vertical activity (VACTV) are recorded. The first cycle evaluates the spontaneous activity in a new environment and the second measures the activity of the animal once habituated to the new environment. This task was performed on days 60, 70, 78, and 86 post-infection. The rotarod (Ugo Basile, Milan, Italia) consists of a rotating cylinder (roll) suspended above a cage floor turning at a constant speed or acceleration. The system is completed with a stopwatch for each compartment that stops when the mouse falls from the roll to a lever on the bottom of the device. One week prior to the test, mice were trained and familiarized with the test for one minute at a constant speed. The length of time that mice stay on the rotating roll is a measure of their balance and motor coordination. The test consists of measuring the time that mice remain on the roll with constant acceleration for a maximum time of five minutes. Mice that developed strategies to stay on the roll (p.e. seeking support on the wall) were excluded from evaluation. The rotarod test was performed on day 72, 78, and 86 post-infection.
Cervical and lumbar spinal cord segments of spinal cords obtained from EAE mice sacrificed on day 17 or 26 post-immunization were divided and processed for inclusion and sectioning in paraffin and for inclusion in an optimal cutting temperature (OCT) compound and future cryosectioning of the samples. Spinal cord segments were immediately fixed with buffered 10% formalin for 48 h, dehydrated and included in paraffin using standard techniques. […]

[3] = tested on: spleen cells isolated from mice suffering chronic EAE; assay: Encephalitogenic T-cell response in vitro, spleen cells of EAE mice re-stimulated with MOG35–55; type: cell-based, mouse; conditions: 0.5 µM ORY-2001, MOG35–55 15 µM
Method: Spleen and draining lymph node (DLN) cells (10^6/mL) collected from EAE mice were stimulated in complete medium (RPMI 1640 containing 10% FBS, 50 µM 2-ME, 2 mM L-glutamine, 100 U/mL penicillin, and 100 µg/mL streptomycin) with 15 µM MOG35–55. After 48 h, cytokine (IL-4, TNF-alpha, IFN-gamma) and chemokine (IP-10 and MCP1) contents in culture supernatants were determined by sandwich ELISAs using capture/biotinylated detection Abs according to the manufacturer’s recommendations. The antibodies used are indicated in Supplementary Materials Table S4. Cell proliferation was evaluated after 72 h by adding 2.5 µCi/mL tritiated-thymidine during the last 8 h of culture and determining cpm incorporation in a Microbeta counter. We used T cell activation with an anti-CD3 […] antibody (1 µg/mL) or ConA (2.5 µg/mL) as controls of unspecific polyclonal stimulation.
Data are the mean ± SEM with dots representing individual values of biologically independent animals.

[4] = tested on: circulating lymphocytes; assay: Toxicity studies, overall statements (circulating lymphocytes, gastrointestinal toxicity); type: in vivo, rat and dog; conditions: for total number of circulating lymphocytes: at doses effective in EAE and TMEV models
Description: T r eat m e nt N Ly m p h o c y te s Equivalent m ou se d o se
( mg /k g p. o. ga va g e) (109/ L ) ( mg /k g p.o ga va ge)
6 m ont h s W i sta r r at s
9 m ont h s Be ag le d og s
Eff ec t of t r ea t me nt wi t h O RY-2 00 1 a d mi ni st e r e d by or al ga va ge o n l y m ph oc yt e s ob se r ve d i n G LP
t ox i c ol ogi c a l st udi e s i n r at a nd do g. A ni ma l s we r e t re a t e d or al l y (fi ve c o ns e c ut i ve da ys/ we e k) by ga va ge
28 da ys or 6 mo nt hs ( ra t s) a nd 28 da ys or 9 mo nt hs (dogs). Data re prese nt de me a n ± S D. T he e q ui va l e n t
dos e i n m o use i s i n di c at e d. 1-wa y A N OV A a n d D u n ne t t’ s M ul ti pl e C o m pa ri so n t e st wa s use d.

For `Nc1nnc(CN[C@@H]2C[C@H]2c2ccc(OCc3ccccc3)cc2)o1` [ORY-2001], the “YKL40 levels in patients” value ([1]; AD Phase II trial ETHERAL, relative to placebo) is listed as “significantly reduced relative to placebo”, the aggression ([1]; BPD, ADHD, ASD and moderate-severe AD, Phase IIa REIMAGINE and REIMAGINE-AD) is listed as “significantly reduced aggression” and the safety in humans ([1]; more than 300 subjects in multiple studies) is listed as “has been shown to be safe”. For the same compound, the “safety and tolerability, long-term treatment” value ([1]; relapse-remitting and secondary progressive MS, SATEEN) was “safe and well tolerated”, the “CD4 and CD8 lymphocytes in spinal cord parenchyma” value ([2]; p.o. 0.3 and 1.0 mg/kg) was “decreased the accumulation of CD4 and CD8 lymphocytes into the parenchyma” and the body weight ([2]; p.o. 0.3 and 1.0 mg/kg) was “did not produce any body weight changes”. For the same compound, the “horizontal activity (activity cage)” value ([2]; p.o. 0.3 and 1.0 mg/kg) was “significantly improved the motor activity in the horizontal activity”, the “infiltration of immune cells into the spinal cord” value ([2]; p.o. 0.3 and 1.0 mg/kg) was “diminished after ORY-2001 treatment” and the “other motor deficits (vertical activity, rotarod)” value ([2]; p.o. 0.3 and 1.0 mg/kg) was “partially reduced other motor deficits”. The clinical score ([2]; p.o. 0.3 and 1.0 mg/kg, days 72-76 and 79-83 post-infection) was “reduced the clinical score”, the astroglial activation ([2]; spinal cord) was “partially limited astroglial activation” and the axon integrity ([2]; spinal cord) was “increased axon integrity”. The “microglial activation (AIF-1 positive cells)” value ([2]; spinal cord) was “significantly reduced microglial activation”, the “IL-10 and IL-4 levels” value [3] was “increasing the levels of the anti-inflammatory mediators IL-10 and IL-4” and the “MOG35–55-induced proliferation and cytokine production” value [3] was “deactivated the MOG35–55 -induced proliferation and cytokine production in vitro”. For the same compound, the “total number of circulating lymphocytes” value [4] was “did not significantly impact the total number of circulating lymphocytes”, the “total number of circulating lymphocytes” value ([4]; listed as vafidemstat) was “do not significantly impact the total number of circulating lymphocytes; also recorded: do not significantly affect hematology or lymphocyte counts” and the gastrointestinal toxicity ([4]; at effective doses, listed as vafidemstat) was “did not induce any signs of gastrointestinal toxicity; also recorded: without signs of gastro-intestinal toxicity”.
